Test results as given in patent US8722667B2, “Compositions and methods for inhibiting the proliferation of cells” (The Regents of the University of Michigan, priority 1999, dated 2014).

Assays:
[1] = target: T1, mitochondrial F1F0-ATPase (Bos taurus, UniProt P13621); assay: ATPase activity in sub-mitochondrial particles (SMPs); type: biochemical, bovine; settings: at 80 μM
T1 construct: from tissue
Excerpt: Oligomycin, a macrolide natural product that binds to the mitochondrial F1F0-ATPase, induces a state 3 to 4 transition and generates O2^− like Bz-423. Based on these similarities, it is possible that the F1F0-ATPase is also the molecular target for Bz-423. To test this hypothesis, the effect of Bz-423 on ATPase activity in sub-mitochondrial particles (SMPs) was examined.
>40 derivatives of Bz-423 were developed to determine the elements on this novel agent required for biological activity. […] The potency of these analogues in cell based assays correlated with the ED50 values in ATPase inhibition experiments using SMPs.

[2] = test system: migration inhibitory factor (MIF); assay: gene expression profiling of treated cells; type: cell-based, human
Excerpt: In response to antigenic or mitogenic stimulation, lymphocytes secrete protein mediators, one of which is named migration inhibitory factor (MIF) for its ability to prevent the migration of macrophages in vitro. MIF may be an anti-tumor agent. In addition, the ability of MIF to prevent the migration of macrophages may be exploited for treating wounds. MIF may alter the immune response to different antigens. MIF links chemical and immunological detoxification systems. MIF was induced approximately 10-fold by Bz-423. Thus, the present invention contemplates the use of MIF as a target of the compounds of the present invention.
In vitro testing with Ramos cells to determine the changes in gene expression (at the level of mRNA) induced by Bz-423 was performed by culturing cells at a density of 500,000 cells per ml. Solvent control (DMSO, final concentration 0.1% V/V]), Bz-423, or Bz-OMe (10 μM) was added to cells. After 4 h, cells were harvested and RNA prepared using Trizol Reagent (#15596-018, Life Technologies, Rockville, Md.) and the RNeasy Maxi Kit (#75162, Qiagen, Valencia, Calif.) according to manufacturers protocols. Single stranded cDNA was synthesized by reverse transcription using poly (A) RNA present in the starting total RNA sample. […] Hybridization results were quantified using a GeneArray scanner and analysis carried out according to the instructions provided by Affymetrix.

[3] = test system: sub-mitochondrial particles; assay: redox cycling, NADH and NAD(P)H oxidation assays with sub-mitochondrial particles; type: biochemical; settings: SMPs
Experimental: By contrast, replacing the hydroxyl with chlorine or azide, or methylating the phenol effectively abolishes the cytotoxic activity of Bz-423. […] Such agents accept an electron from MRC enzymes and transfer it back to the chain at point of higher reducing potential. This type of ‘redox cycling’ consumes endogenous reducing equivalents (e.g., glutathione) along with […] nucleotides and results in cell death. To distinguish between these alternatives, it was determined whether Bz-423 redox cycles in the presence of sub-mitochondrial particles using standard NADH and NAD(P)H oxidation assays.

B cells = assay: collapse of mitochondrial transmembrane potential, DiOC6(3); type: cell-based; settings: by 5 hours
Experimental: To detect O2^−, cells are incubated with DHE (10 μM) for 30 min at 37° C. and are analyzed by flow cytometry to measure ethidium fluorescence. Flow analysis of mitochondrial transmembrane potential (ψm) is conducted by labeling cells with DiOC6(3) (20 nM) for 15 min at 37 degrees C. A positive control for disruption of ψm is established using carbonyl cyanide m-chlorophenylhydrazone (CCCP, 50 μM). Caspase activation assays are performed with FAM-VAD-fluoromethylketone. Processing of the substrate is evaluated by flow cytometry.
To characterize the death mechanism engaged by Bz-423, intracellular ROS, ΔΨm, cytochrome c release, caspase activation, and DNA fragmentation were measured over time (the results presented are for B cells but do characterize the response in many different cell types). The first event detected after exposure to Bz-423 is an increase in the fraction of cells that stain with dihyroethedium (DHE), a redox-sensitive agent that reacts specifically with O2^−.
Collapse of ΔΨm was detected using DiOC6(3), a mitochondria-selective potentiometric probe.

Namalwa ρ0 cells = assay: ROS response in cells devoid of mtDNA; type: cell-based
Experimental: ROS in response to Bz-423. Complexes I-IV in the MRC are partially encoded by mitochondrial DNA (mtDNA). […] Because ethidium bromide is toxic to Ramos cells, these experiments were conducted with Namalwa B cells, another mature B cell line.

[4] = test system: ornithine decarboxylase (ODC); assay: ODC activity in treated cells, conversion of 3H-ornithine to putrescine; type: cell-based; settings: cells treated 4 h
Experimental: In these experiments, the conversion of ornithine to putrescine was quantified using ^3H-ornithine. For comparisons, control cells were treated with vehicle control or difluoromethyl ornithine (DFMO), a potent inhibitor of ornithine decarboxylase (like Bz-423, DFMO is a potent anti-proliferative agent). […] The reduction in ODC activity was paralleled by a decrease in ODC protein levels measured under the same conditions.
As described above, Bz-423 induced apoptosis was signaled by an ROS response that arose from MRC complex III as a result of the state 3 to 4 transition. It was next sought to determine if the ROS response, critical for apoptosis, also mediated these effects on ODC. If the ROS was required for the decrease in ODC activity, it would likewise be implicated as potentially part of the anti-proliferative response to Bz-423. To test this, Ramos cells were treated with Bz-423, DFMO, or vehicle control for 4 h. In parallel, a second group of cells was pre-incubated with MnTBAP to limit the ROS and then cultured with Bz-423, DFMO, and vehicle control.

[5] = test system: isolated rat liver mitochondria; assay: ROS production in isolated mitochondria (DCF formation); type: biochemical; settings: for ROS production: mitochondria in state 4; for increase of the rate of ROS production versus control: state 3 respiration, after the induction phase
Experimental: Male Long Evans rats are starved overnight and sacrificed by decapitation. Liver samples are homogenized in ice cold buffer A (250 mM sucrose, 10 mM Tris, 0.1 mM EGTA, pH 7.4), and nuclei and cellular debris are pelleted ([…], 830g, 4° C.). Mitochondria are collected by centrifugation (10 min, 15,000g, 4° C.), and the supernatant is collected as the S15 fraction. The mitochondrial pellet is washed three times with buffer B (250 mM sucrose, 10 mM Tris, pH 7.4), and re-suspended in buffer B at 20-30 mg/mL. Mitochondria are diluted (0.5 mg/mL) in buffer C (200 mM sucrose, 10 mM Tris, pH 7.4, 1 mM KH2PO4, 10 μM EGTA, 2.5 μM rotenone, 5 mM succinate) containing 2′,7′-dichlorodihydrofluorescin diacetate (DCFH-DA, 1 μM). For state 3 measurements, ADP (2 mM) is included in the buffer, and prior to the addition of Bz-423, mitochondria are allowed to charge for 2 min. To induce state 4, oligomycin (10 μM) is added to buffer C. […] To detect effects on O2^− and delta ψm, mitochondria are incubated for 15 min at 37° C. in buffer C with vehicle, Bz-423, or CCCP containing DHE (5 μM) or DIOC6(3) (20 nM), and aliquots are removed for analysis by fluorescence microscopy.
O2^− production by Bz-423 may result from binding to a protein within mitochondria or a target in another compartment that signals mitochondria to generate ROS. To distinguish between these alternatives, isolated rat liver mitochondria were assayed for ROS production by monitoring the oxidation of 2′,7′-dichlorodihydrofluorescin diacetate to of 2′,7′-dichlorofluorescin in the presence and absence of Bz-423. In this assay, the rate of DCF production increased after a lag period during which endogenous reducing equivalents were consumed and the acetate moieties on the probe were hydrolyzed to yield 2′,7′-dichlorodihydrofluorescin, the redox-active species.

Ramos cells = assay: cytotoxicity versus antiproliferation in media with 10% FBS; type: cell-based, human; settings: >20 μM
Experimental: Like most 1,4-benzodiazepines, Bz-423 binds strongly to bovine serum albumin (BSA), which reduces the effective concentration of drug free in solution. For example, in tissue culture media containing 10% (v/v) fetal bovine serum (FBS), ca. 99% of the drug is bound to BSA. Therefore, cell culture cytotoxicity assays are conducted in media with 2% FBS to reduce binding to BSA and increase the free [Bz-423]. Under these conditions, the dose response-curve is quite sharp such that there is a limited concentration range at which Bz-423 is only partly effective. Since some benzodiazepines are known to have anti-proliferative properties, the effect of Bz-423 at concentrations <ED50 were carefully analyzed and observed that in addition to inducing apoptosis, Bz-423 prevented cell growth after 3 d in culture. In these low serum conditions, the cytotoxic and anti-proliferative effects overlapped making it difficult to study each effect independently. […] While higher amounts of drug may also block proliferation, it caused apoptosis well before the effects on proliferation could be observed.

panel of cells = assay: antiproliferation of Bz-Cl against the panel of cells, 3 d; type: cell-based; settings: after 3 d

Molecule: CN1C(=O)CN=C(c2ccc(Cl)cc2)c2cc(Cl)ccc21 [4-Cl-diazepam, 4-chlorodiazepam]
- inhibition of mitochondrial ATPase activity [1]: do not significantly inhibit

Molecule: CN1C(=O)C(Cc2ccc3ccccc3c2)N=C(c2ccc(O)cc2)c2cc(Cl)ccc21 (stereo not shown) [Bz-423]
- induction of MIF [2]: approximately 10 fold
- substrate oxidation (redox cycling) [3]: does not lead to substrate oxidation
- cells with collapse of ΔΨm (B cells): > 90 % of cells
- ROS response (Namalwa ρ0 cells): did not result in an ROS response
- effect on ODC activity [4]: significantly reduced ODC activity in a dose-dependant fashion
- ROS production [5]: does not stimulate ROS
- increase of the rate of ROS production versus control [5]: nearly two-fold
- cellular effect observed (Ramos cells): only apoptosis was observed

Molecule: CN1C(=O)C(Cc2ccc3ccccc3c2)N=C(c2ccc(Cl)cc2)c2cc(Cl)ccc21 (stereo not shown) [Bz-Cl]
- ED50 for reduced proliferation compared with Bz-423 (panel of cells): comparable ED50 values

Molecule: CCC(C)N(C)C(=O)c1cc2ccccc2c(-c2ccccc2Cl)n1 (stereo not shown) [PK11195]
- inhibition of mitochondrial ATPase activity [1]: do not significantly inhibit

Molecule: antimycin A [reference compound]
- ROS production [5]: active
- increase of the rate of ROS production versus control [5]: nearly two-fold
